Here are results for 3 compounds from ChEMBL document CHEMBL5380868, “Filling a nick in NIK: Extending the half-life of a NIK inhibitor through structure-based drug design” (Bioorg Med Chem Lett, 2023).

Each structure is given as a SMILES string. In brackets after ≈: the same amount, converted by molar mass. Bounds are passed on as bounds.

A short description of data set [1]: Kinetic solubility of compound in PBS at pH 7.4. Particulars: read-out: Kinetic_solubility. It counts as physicochemical.
Data set [2] in a line: Oral bioavailability in C57BL/6J mouse at 50 mg/kg. Type of data set: ADME, organism-based. Particulars: in vivo.
The nature of data set [3]: Volume of distribution in Sprague-Dawley rat. It counts as ADME. Particulars: in vivo.
Data set [4] can be described thus: Volume of distribution in Cynomolgus monkey. Type of data set: ADME, Macaca fascicularis. Conditions: in vivo.
Data set [5] is described as follows: Oral bioavailability in Sprague-Dawley rat at 5 mg/kg. Type of data set: ADME, organism-based. Particulars: in vivo.
A short description of data set [6]: Oral bioavailability in Cynomolgus monkey at 5 mg/kg. It counts as ADME, organism-based, Macaca fascicularis. Particulars: in vivo.
Another data set deals with HEK293. The data set is described as follows: Inhibition of Herpes simplex virus thymidine kinase in HEK293 cells assessed as maximal inhibition by Renilla luciferase based assay relative to control. Particulars: Herpesviridae sp. Type of data set: cell-based.
A short description of data set [7]: Oral bioavailability in non-naive Beagle dog at 5 mg/kg. Type of data set: ADME, organism-based, Canis lupus familiaris. Conditions: in vivo.
Data set [8] addresses Leucine-rich repeat serine/threonine-protein kinase 2 (Homo sapiens) (UniProt Q5S007). Description: Inhibition of recombinant human LRRK2 at 1 uM relative to control.
Data set [9] can be described thus: Volume of distribution in C57BL/6J mouse. Conditions: in vivo. It counts as ADME.
Data set [10] in a line: Volume of distribution in non-naive Beagle dog. Type of data set: ADME, Canis lupus familiaris. Conditions: in vivo.
Data set [11] in a line: Inhibition of Herpes simplex virus thymidine kinase in HEK293 cells by Renilla luciferase based assay. Type of data set: cell-based. Conditions: Herpesviridae sp.
The nature of data set [12]: Oral bioavailability in non-naive Beagle dog at 1 mg/kg. Type of data set: ADME, organism-based, Canis lupus familiaris. Conditions: in vivo.
A short description of data set [13]: Hepatic clearance in rat hepatocytes. Type of data set: ADME, cell-based, Hepatocyte.
Data set [14] can be described thus: Plasma clearance in iv dosed C57BL/6J mouse. It counts as ADME, organism-based.
The nature of data set [15]: Plasma clearance in iv dosed non-naive Beagle dog. It counts as ADME, organism-based, Canis lupus familiaris.
In data set [16] the target is T1, Mitogen-activated protein kinase kinase kinase 14 (Homo sapiens, UniProt Q99558). Description: Inhibition of NIK in human primary B cell assessed as inhibition of CD40L-stimulated nuclear translocation of p52 in cell based assay.
Data set [17] in a line: Half life in iv dosed Sprague-Dawley rat. Type of data set: ADME, organism-based. Particulars: in vivo.
Data set [18] can be described thus: Hepatic clearance in cynomolgus monkey liver microsomes. It counts as ADME, Macaca fascicularis, Microsome. For orientation: Liver microsomes are a subcellular fraction often used to study metabolism.
The target in data set [19] is T1, Mitogen-activated protein kinase kinase kinase 14. The data set is described as follows: Inhibition of NIK in HUVEC cells assessed as inhibition of anti-[…]-stimulated p52 nuclear translocation. Type of data set: cell-based.
The nature of data set [20]: Unbound plasma clearance in iv dosed C57BL/6J mouse. It counts as ADME, organism-based. Particulars: in vivo.
Data set [21] is described as follows: Hepatic clearance in dog liver microsomes. Type of data set: ADME, Canis lupus familiaris, Microsome.
Data set [22] has as its target Mitogen-activated protein kinase kinase kinase kinase 5 (Homo sapiens) (UniProt Q9Y4K4). The data set is described as follows: Inhibition of recombinant human KHS1 at 1 uM relative to control.
Data set [23] is described as follows: Hepatic clearance in human hepatocytes. Type of data set: ADME, cell-based, Hepatocyte.
Data set [24] can be described thus: Hepatic clearance in human liver microsomes. Type of data set: ADME, Microsome.
A short description of data set [25]: Unbound plasma clearance in iv dosed Sprague-Dawley rat. It counts as ADME, organism-based. Particulars: in vivo.
Data set [26] in a line: Half life in iv dosed non-naive Beagle dog. Type of data set: ADME, organism-based, Canis lupus familiaris. Conditions: in vivo.
Data set [27] has as its target T1, Mitogen-activated protein kinase kinase kinase 14. Description: Inhibition of NIK (unknown origin) catalyzed ATP hydrolysis by fluorescence polarization method.
The target is the same in data set [28]. Description: Inhibition of NIK in HEK-293 cells assessed as inhibition of NIK-dependent NF-kappaB response element expression by firefly luciferase reporter gene based analysis. Type of data set: cell-based, HEK293. A general note: A reporter such as luciferase makes a cellular process visible.
Data set [29] can be described thus: Oral bioavailability in Cynomolgus monkey at 1 mg/kg. Type of data set: ADME, organism-based, Macaca fascicularis. Particulars: in vivo.
Data set [30] can be described thus: Half life in iv dosed C57BL/6J mouse. It counts as ADME, organism-based. Conditions: in vivo.
Data set [31] in a line: Half life in iv dosed Cynomolgus monkey. Conditions: in vivo. It counts as ADME, organism-based, Macaca fascicularis.
A short description of data set [32]: Lipophilicity, logD of the compound at pH 7.4 by shake flask method based LC-MS analysis. Type of data set: physicochemical. Conditions: buffer.
Data set [33] can be described thus: Plasma clearance in iv dosed Cynomolgus monkey. Type of data set: ADME, organism-based, Macaca fascicularis. Particulars: in vivo.
The nature of data set [34]: Hepatic clearance in mouse hepatocytes. Type of data set: ADME, cell-based, Hepatocyte.
The nature of data set [35]: Oral bioavailability in C57BL/6J mouse at 10 mg/kg. Type of data set: ADME, organism-based. Conditions: in vivo.
A short description of data set [36]: Hepatic clearance in dog hepatocytes. Type of data set: ADME, cell-based, Canis lupus familiaris, Hepatocyte.
Data set [37] is described as follows: Unbound plasma clearance in iv dosed non-naive Beagle dog. Type of data set: ADME, organism-based, Canis lupus familiaris. Particulars: in vivo.
The nature of data set [38]: Hepatic clearance in cynomolgus monkey hepatocytes. Type of data set: ADME, cell-based, Macaca fascicularis, Hepatocyte.
Data set [39] is described as follows: Hepatic clearance in rat liver microsomes. It counts as ADME, Microsome.
Data set [40] concerns the target Serine/threonine-protein kinase D1 (Homo sapiens) (UniProt Q15139). Description: Inhibition of recombinant human PKD1 at 1 uM relative to control.
Data set [41] is described as follows: Unbound plasma clearance in iv dosed Cynomolgus monkey. Type of data set: ADME, organism-based, Macaca fascicularis. Conditions: in vivo.
Data set [42] is described as follows: Hepatic clearance in mouse liver microsomes. It counts as ADME, Microsome.
The nature of data set [43]: Plasma clearance in iv dosed Sprague-Dawley rat. It counts as ADME, organism-based.

A word on the bioavailability: it is dose-corrected exposure relative to a reference, in per cent. Broadly, the Vd is the apparent volume that relates the amount in the body to the concentration in plasma or blood. The term inhibition denotes the drop in the measured response relative to a control, in per cent. By IC50 is commonly meant the concentration needed to halve the response being measured. The term clearance denotes the rate of elimination divided by the concentration. In general, half-life refers to how long it takes for the measured level to halve. Usually logD stands for lipophilicity at a set pH, counting ionised and neutral species.

T1 sequence (Q99558 whole entry): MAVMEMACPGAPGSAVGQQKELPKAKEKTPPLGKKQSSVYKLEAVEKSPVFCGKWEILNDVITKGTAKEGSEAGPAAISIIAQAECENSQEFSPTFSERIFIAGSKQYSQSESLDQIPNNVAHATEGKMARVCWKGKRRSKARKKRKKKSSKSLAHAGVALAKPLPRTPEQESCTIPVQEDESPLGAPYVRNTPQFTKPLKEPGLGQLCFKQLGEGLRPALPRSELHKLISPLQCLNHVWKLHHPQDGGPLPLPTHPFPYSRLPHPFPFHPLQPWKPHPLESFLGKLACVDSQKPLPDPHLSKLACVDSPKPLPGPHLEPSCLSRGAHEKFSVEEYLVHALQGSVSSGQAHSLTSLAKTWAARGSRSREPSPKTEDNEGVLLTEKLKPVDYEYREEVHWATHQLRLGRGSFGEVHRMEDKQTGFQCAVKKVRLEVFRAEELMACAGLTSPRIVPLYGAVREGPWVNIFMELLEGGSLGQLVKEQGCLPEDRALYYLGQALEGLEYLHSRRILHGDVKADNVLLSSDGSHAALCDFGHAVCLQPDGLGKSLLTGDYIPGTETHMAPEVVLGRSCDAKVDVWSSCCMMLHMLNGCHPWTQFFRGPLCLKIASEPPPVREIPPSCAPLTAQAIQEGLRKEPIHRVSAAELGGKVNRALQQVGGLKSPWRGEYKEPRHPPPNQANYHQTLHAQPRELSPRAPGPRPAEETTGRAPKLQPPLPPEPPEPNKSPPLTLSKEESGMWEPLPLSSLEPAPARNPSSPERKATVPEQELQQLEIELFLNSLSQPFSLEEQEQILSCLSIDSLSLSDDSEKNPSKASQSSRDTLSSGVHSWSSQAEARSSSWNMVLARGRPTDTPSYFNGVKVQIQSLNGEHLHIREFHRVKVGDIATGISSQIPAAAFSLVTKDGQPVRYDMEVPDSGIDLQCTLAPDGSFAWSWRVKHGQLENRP
Sequence of Leucine-rich repeat serine/threonine-protein kinase 2 (Homo sapiens) (Q5S007 whole entry): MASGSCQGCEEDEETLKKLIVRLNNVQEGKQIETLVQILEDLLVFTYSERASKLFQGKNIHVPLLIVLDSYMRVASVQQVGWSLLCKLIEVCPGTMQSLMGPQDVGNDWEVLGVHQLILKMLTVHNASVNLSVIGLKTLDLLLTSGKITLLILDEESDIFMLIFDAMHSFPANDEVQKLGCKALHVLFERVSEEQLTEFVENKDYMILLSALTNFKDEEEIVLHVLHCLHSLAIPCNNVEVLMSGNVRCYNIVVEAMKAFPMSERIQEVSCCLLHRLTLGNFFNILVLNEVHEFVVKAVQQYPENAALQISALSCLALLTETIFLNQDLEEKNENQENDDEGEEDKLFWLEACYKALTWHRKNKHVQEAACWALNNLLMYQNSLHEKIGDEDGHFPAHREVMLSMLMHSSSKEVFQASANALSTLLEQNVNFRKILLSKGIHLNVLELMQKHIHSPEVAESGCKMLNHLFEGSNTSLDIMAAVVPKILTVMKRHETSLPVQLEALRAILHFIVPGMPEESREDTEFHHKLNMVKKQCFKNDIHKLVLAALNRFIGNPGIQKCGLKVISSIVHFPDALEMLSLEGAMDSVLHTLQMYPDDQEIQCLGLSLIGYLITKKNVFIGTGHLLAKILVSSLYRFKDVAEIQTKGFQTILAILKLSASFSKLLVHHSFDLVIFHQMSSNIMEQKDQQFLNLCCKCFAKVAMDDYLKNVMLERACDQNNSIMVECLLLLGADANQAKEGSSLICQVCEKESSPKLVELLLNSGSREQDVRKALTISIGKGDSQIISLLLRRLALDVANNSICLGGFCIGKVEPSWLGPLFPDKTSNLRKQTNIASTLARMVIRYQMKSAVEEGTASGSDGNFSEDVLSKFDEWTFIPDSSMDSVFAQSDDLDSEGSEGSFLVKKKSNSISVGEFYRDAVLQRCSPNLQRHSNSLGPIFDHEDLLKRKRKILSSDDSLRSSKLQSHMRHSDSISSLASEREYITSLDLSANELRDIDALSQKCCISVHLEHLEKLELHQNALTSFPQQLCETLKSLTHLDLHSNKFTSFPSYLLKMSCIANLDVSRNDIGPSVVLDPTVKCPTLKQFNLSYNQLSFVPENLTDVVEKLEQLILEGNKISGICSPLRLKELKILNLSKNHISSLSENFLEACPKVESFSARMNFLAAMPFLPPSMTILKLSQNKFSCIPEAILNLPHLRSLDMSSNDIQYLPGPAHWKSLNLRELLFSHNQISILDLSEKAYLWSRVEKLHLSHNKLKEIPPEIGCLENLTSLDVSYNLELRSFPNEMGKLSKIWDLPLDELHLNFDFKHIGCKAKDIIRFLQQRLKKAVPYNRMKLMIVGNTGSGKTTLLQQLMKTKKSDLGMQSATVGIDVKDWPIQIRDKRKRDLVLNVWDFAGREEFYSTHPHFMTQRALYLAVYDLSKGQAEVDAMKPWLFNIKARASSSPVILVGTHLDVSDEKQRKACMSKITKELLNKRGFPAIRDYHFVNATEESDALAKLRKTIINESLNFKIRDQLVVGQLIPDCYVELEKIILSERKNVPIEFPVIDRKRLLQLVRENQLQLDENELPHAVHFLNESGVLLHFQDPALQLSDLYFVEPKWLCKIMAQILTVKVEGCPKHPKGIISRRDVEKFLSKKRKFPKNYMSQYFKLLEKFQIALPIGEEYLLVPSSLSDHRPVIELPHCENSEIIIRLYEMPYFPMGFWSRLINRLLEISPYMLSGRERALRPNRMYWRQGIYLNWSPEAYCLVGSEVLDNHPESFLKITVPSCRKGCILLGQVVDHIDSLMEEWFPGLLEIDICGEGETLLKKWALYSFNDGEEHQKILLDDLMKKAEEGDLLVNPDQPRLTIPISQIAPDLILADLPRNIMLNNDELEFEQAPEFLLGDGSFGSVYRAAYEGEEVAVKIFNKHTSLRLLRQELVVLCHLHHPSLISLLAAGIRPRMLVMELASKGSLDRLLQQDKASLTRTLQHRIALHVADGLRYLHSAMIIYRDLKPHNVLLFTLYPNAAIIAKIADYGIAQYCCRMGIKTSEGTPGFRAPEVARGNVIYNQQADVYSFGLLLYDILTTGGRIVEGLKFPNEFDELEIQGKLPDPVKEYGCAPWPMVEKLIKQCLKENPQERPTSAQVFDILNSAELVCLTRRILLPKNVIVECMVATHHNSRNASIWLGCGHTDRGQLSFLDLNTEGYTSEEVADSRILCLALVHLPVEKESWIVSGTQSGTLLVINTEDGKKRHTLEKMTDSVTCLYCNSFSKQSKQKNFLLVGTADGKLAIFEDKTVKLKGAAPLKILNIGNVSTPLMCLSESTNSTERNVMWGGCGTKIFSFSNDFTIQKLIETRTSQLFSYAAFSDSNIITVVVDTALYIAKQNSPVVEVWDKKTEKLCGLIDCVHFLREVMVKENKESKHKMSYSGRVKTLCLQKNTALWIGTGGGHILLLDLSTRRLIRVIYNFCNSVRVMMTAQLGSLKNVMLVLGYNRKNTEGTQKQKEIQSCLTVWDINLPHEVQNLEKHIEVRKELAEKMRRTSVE
Sequence of Serine/threonine-protein kinase D1 (Homo sapiens) (Q15139 whole entry, looked up): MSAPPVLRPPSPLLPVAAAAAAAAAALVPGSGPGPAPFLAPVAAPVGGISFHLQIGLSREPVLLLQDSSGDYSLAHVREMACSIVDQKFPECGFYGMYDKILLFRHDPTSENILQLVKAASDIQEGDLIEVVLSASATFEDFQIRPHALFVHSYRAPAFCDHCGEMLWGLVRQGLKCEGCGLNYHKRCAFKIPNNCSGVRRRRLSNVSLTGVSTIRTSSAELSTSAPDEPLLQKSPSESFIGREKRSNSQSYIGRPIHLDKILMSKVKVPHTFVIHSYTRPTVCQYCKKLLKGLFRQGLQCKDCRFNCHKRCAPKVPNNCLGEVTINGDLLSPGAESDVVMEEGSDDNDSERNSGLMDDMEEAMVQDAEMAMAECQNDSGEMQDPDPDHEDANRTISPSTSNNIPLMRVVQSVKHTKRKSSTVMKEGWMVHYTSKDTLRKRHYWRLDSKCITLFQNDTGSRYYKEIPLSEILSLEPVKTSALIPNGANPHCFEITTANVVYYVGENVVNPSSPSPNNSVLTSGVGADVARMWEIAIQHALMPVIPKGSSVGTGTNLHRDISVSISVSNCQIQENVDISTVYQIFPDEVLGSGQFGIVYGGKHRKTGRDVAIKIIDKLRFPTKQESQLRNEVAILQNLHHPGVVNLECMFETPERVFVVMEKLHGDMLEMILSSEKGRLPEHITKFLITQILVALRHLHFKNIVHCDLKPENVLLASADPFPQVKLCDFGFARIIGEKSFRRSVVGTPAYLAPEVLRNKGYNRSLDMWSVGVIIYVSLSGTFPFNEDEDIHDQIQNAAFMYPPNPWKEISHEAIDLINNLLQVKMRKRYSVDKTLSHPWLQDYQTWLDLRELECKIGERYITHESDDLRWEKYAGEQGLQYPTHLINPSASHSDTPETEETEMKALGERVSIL

In the case of `CN1CC[C@@](O)(C#Cc2cccc(-n3nc(C(N)=O)c4cccnc43)c2)C1=O`, the solubility kinetic in data set [1] was 122 µM (≈ 45.8 µg/mL). In addition, the bioavailability in [2] was 72%; in [5], 62%; in data set [6], > 100%; in data set [7] it was 44%. Further, the Vd was determined as 2.9 L/kg in data set [3], 1.1 L/kg in data set [4], 0.5 L/kg in data set [9] and 0.8 L/kg in [10]. Moreover, the Imax in the data set on HEK293 came out at 7%. For the same compound, in data set [8], the inhibition was determined as 59%. In data set [11], the IC50 is > 2000 nM.
On to `CN1C(=O)[C@](O)(C#Cc2cccc(-n3nc(C(N)=O)c4cccnc43)c2)[C@H]2C[C@H]21`, for which the solubility kinetic in [1] was determined as 92 µM (≈ 35.6 µg/mL). The bioavailability was 78% in data set [12], > 100% in [5], 65% in data set [29] and 49% in data set [35]. In addition, the CLhep predicted is < 10 mL/min/kg in data set [13]; 15 mL/min/kg in data set [18]; 14 mL/min/kg in [21]; < 6.2 mL/min/kg in [23]; 5.8 mL/min/kg in [24]; < 21 mL/min/kg in data set [34]. The values for the CLhep predicted in data set [36], in data set [39] and in data set [42] were < 7.8 mL/min/kg, 18 mL/min/kg and 29 mL/min/kg, respectively. Besides, the clearance is 11 mL/min/kg in data set [14], 7.1 mL/min/kg in data set [15], 6.7 mL/min/kg in [33] and 42 mL/min/kg in [43]. The IC50 in data set [16] was 330 nM; in data set [19] it was 55 nM; in data set [27] it was 2 nM; in data set [28], 53 nM; in data set [11], > 2000 nM. Further, the half-life in [17] was 0.7 h; in data set [26], 4.8 h; in data set [30] it was 1.5 h; in data set [31] it was 4.9 h. The Vd was 2.6 L/kg in [3], 2 L/kg in [4], 1.1 L/kg in [9] and 1.2 L/kg in [10]. The CL free in [20] was found to be 367 mL/min/kg; in [25], 656 mL/min/kg; in data set [37], 68 mL/min/kg; in data set [41], 95 mL/min/kg. In addition, the inhibition was found to be 89% in data set [22], 6% in [8] and 79% in [40]. For the same compound, the Imax in the data set with HEK293 came to 6%. The compound further gave a logD in data set [32] of 1.8. In addition, in data set [38], the CLH is < 8.8 mL/min/kg.
Consider `COc1cc(C(N)=O)nc(-c2cccc(C#C[C@]3(O)CCN(C)C3=O)c2)c1`, for which, in data set [8], the inhibition was 82%.
